Earlier results, collected in US10781471B2, “NRAS related cancer therapy” (Ruijin Hospital Affiliated to Shanghai Jiao Tong University …, priority 2014, dated 2020).

Tested on: acute lymphoblastic leukemia (ALL)
Details: methotrexate 3.3 mg/m^2 in combination with 60 mg/m^2 of prednisone, given daily; induction in ALL patients

CN(Cc1cnc2nc(N)nc(N)c2n1)c1ccc(C(=O)N[C@@H](CCC(=O)O)C(=O)O)cc1 [methotrexate, Methotrexate]
period within which remission was usually produced: 4 to 6 weeks | remissions, share of patients treated: 50%
